Source: paper PMC5962729 (Frontiers in Pharmacology, 2018)

Tests used:
[1] = test system: ANIT-induced intrahepatic cholestasis; assay: Bile flow rate in ANIT-induced cholestatic rats; assay type: in vivo, rat; details: UDCA 100 mg/kg i.g. + ANIT 50 mg/kg; over 360 min at 48 h after ANIT; not significant vs model
Experimental: Ltd. (Shanghai, China) and fed in the Laboratory Animal Center of Shanghai University of Traditional Chinese Medicine. […] The rats were randomly divided into six groups (n = 5 for each group). […] [Cao et al., 2017]). […] Before and 24 h after modeling, retro-orbital blood samples were collected in a coagulation tube, and they were then centrifuged at 4°C for 10 min (4000 rpm) to obtain the serum for the assay of ALT, AST, TBIL, DBIL, and TBA. At the end of the experiment, all rats were euthanized by CO2 inhalation. The serum samples were stored at -70°C until analysis, and liver samples were isolated and stored at -70°C for further analysis, whereas the central part of the right large lobe of the liver was used for histological examination.  FIGURE 2 The scheme of the animal experimental design. […] UDCA, positive control group treated with ursodeoxycholic acid (UDCA) (100 mg/kg, […].); […] A closed IV catheter system (Becton Dickinson, United States) was applied to cannulate the bile duct, and the bile specimens were collected into tubes at 2 h intervals for 6 h. The collected serum samples were maintained at room temperature to dissolve. The serum levels of ALT, AST, TBIL, DBIL, and TBA were then determined using a chemistry analyzer system (HITACHI 7080, Japan).

UGT1A1 = assay: Expression level of UGT1A1 in rat liver by UHPLC-MS/MS; assay type: in vivo
Experimental: (§1) Male Sprague Dawley rats (230 ± 20 g, 6–8 weeks of age) were purchased from B&K Laboratory Animal, Corp. Ltd. (Shanghai, China) and fed in the Laboratory Animal Center of Shanghai University of Traditional Chinese Medicine. All rats were allowed to acclimatize for 3 days before experimentation. The rats were randomly divided into six groups (n = 5 for each group). […] Moreover, groups 1 and 2 were intragastrically treated with physiological saline (0.9%) at a dose of 1 mL/100 g. […] At the end of the experiment, all rats were euthanized by CO2 inhalation. The serum samples were stored at -70°C until analysis, and liver samples were isolated and stored at -70°C for further analysis, whereas the central part of the right large lobe of the liver was used for histological examination.
Biotransformation of xenobiotics and endogenous compounds is a crucial step in the absorption and elimination of potentially harmful substances from the human body, a process that could be affected by the levels of pharmacokinetic enzymes and transporter proteins. […]
Total membrane protein was isolated (in triplicate) from liver tissue according to the Native Membrane Protein Extraction Kit protocol. Subsequently, protein concentrations were determined by applying the BCA Protein Assay Kit. […]

[2] = test system: ANIT-induced cholestatic liver injury; assay: Liver histopathological examination (H&E) in ANIT-induced cholestatic rats; assay type: in vivo, rat; details: UDCA + ANIT 50 mg/kg
Experimental: as §1

OATP1A1 = assay: Expression level of OATP1A1 in rat liver by UHPLC-MS/MS; assay type: in vivo; details: UDCA group, ANIT-treated rats; mean ± S.D.
Experimental: (§2) Male Sprague Dawley rats (230 ± 20 g, 6–8 weeks of age) were purchased from B&K Laboratory Animal, Corp. Ltd. (Shanghai, China) and fed in the Laboratory Animal Center of Shanghai University of Traditional Chinese Medicine. All rats were allowed to acclimatize for 3 days before experimentation. The rats were randomly divided into six groups (n = 5 for each group). […] The rats in groups 4, 5, and 6 were intragastrically administered YCHD every 24 h for 10 consecutive days. The rats in group 3 were orally administered UDCA at a dose of 100 mg/kg every 24 h for 10 consecutive days, which is well-documented to treat induced liver injury and cholestasis ([Chen et al., 2016]; [Cao et al., 2017]). Moreover, groups 1 and 2 were intragastrically treated with physiological saline (0.9%) at a dose of 1 mL/100 g. […] At the end of the experiment, all rats were euthanized by CO2 inhalation. The serum samples were stored at -70°C until analysis, and liver samples were isolated and stored at -70°C for further analysis, whereas the central part of the right large lobe of the liver was used for histological examination. […]

OATP1A4 = assay: Expression level of OATP1A4 in rat liver by UHPLC-MS/MS; assay type: in vivo
Experimental: as §2

[3] = UDCA group, ANIT-treated rats, mean ± S.D.

SMILES: C[C@H](CCC(=O)O)[C@H]1CC[C@H]2[C@@H]3[C@@H](O)C[C@@H]4C[C@H](O)CC[C@]4(C)[C@H]3CC[C@]12C [UDCA, Ursodeoxycholic acid]
- bile flow rate [1]: 0.29 ± 0.12 μL/min⋅100 g B.W.
- Ugt1a1 expression level in rat liver (UGT1A1; [3]): 6.06±1.34 fmol/μg protein
- UGT1A1 level, fold higher (UGT1A1; UDCA-treated cholestatic rats, liver, as compared with the control group, p < 0.01): 2.1 fold
- liver histopathology (H&E) [2]: hepatocyte hydropic degeneration with less neutrophil infiltration and a milder degree of bile duct epithelial damage
- Oatp1a1 expression level in rat liver (OATP1A1): 3.42±1.23 fmol/μg protein
- Oatp1a4 expression level in rat liver (OATP1A4; [3]): 0.49±0.11 fmol/μg protein
- OATP1A4 expression upregulated, fold (OATP1A4; UDCA-treated cholestatic rats, liver, not statistically significant): 1.3 fold
